Laboratory results as given in PubChem BioAssay (NCI).
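At the GI50, growth is halved. TGI: concentration producing complete growth inhibition.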

Tests used:
Experiment in all cases: NCI anticancer screen, dose series, 384-well format
K-562 leukemia = test system: K-562 leukemia
PC-3 prostate = test system: PC-3 prostate
DU-145 prostate = test system: DU-145 prostate
IGROV1 ovarian = test system: IGROV1 ovarian
MDA-MB-468 breast = test system: MDA-MB-468 breast
SK-OV-3 ovarian = test system: SK-OV-3 ovarian
HT29 colon = test system: HT29 colon
SW-620 colon = test system: SW-620 colon
HCT-116 colon = test system: HCT-116 colon
BT-549 breast = test system: BT-549 breast
SNB-75 CNS = test system: SNB-75 CNS
CCRF-CEM leukemia = test system: CCRF-CEM leukemia
EKVX NSCLC = test system: EKVX NSCLC
SNB-19 CNS = test system: SNB-19 CNS
HS 578T breast = test system: HS 578T breast
NCI-H522 lung = test system: NCI-H522 lung
RPMI-8226 leukemia = test system: RPMI-8226 leukemia
M14 melanoma = test system: M14 melanoma
786-0 renal = test system: 786-0 renal
SF-268 CNS = test system: SF-268 CNS
OVCAR-4 ovarian = test system: OVCAR-4 ovarian
HL-60(TB) leukemia = test system: HL-60(TB) leukemia
OVCAR-3 ovarian = test system: OVCAR-3 ovarian
SF-539 CNS = test system: SF-539 CNS
KM12 colon = test system: KM12 colon
ACHN renal = test system: ACHN renal
NCI/ADR-RES ovarian = test system: NCI/ADR-RES ovarian
UACC-257 melanoma = test system: UACC-257 melanoma
NCI-H226 lung = test system: NCI-H226 lung
MOLT-4 leukemia = test system: MOLT-4 leukemia
MDA-MB-435 melanoma = test system: MDA-MB-435 melanoma
SK-MEL-2 melanoma = test system: SK-MEL-2 melanoma
MCF7 breast = test system: MCF7 breast
CAKI-1 renal = test system: CAKI-1 renal
SF-295 CNS = test system: SF-295 CNS
UO-31 renal = test system: UO-31 renal
U251 glioblastoma = test system: U251 glioblastoma
HOP-62 NSCLC = test system: HOP-62 NSCLC
NCI-H322M lung = test system: NCI-H322M lung
TK-10 renal = test system: TK-10 renal
MALME-3M melanoma = test system: MALME-3M melanoma
NCI-H23 lung = test system: NCI-H23 lung
A549 NSCLC = test system: A549 NSCLC
HCT-15 colon = test system: HCT-15 colon
SK-MEL-28 melanoma = test system: SK-MEL-28 melanoma
LOX IMVI melanoma = test system: LOX IMVI melanoma
SN12C renal = test system: SN12C renal
UACC-62 melanoma = test system: UACC-62 melanoma
HOP-92 NSCLC = test system: HOP-92 NSCLC
A498 renal = test system: A498 renal
RXF 393 renal = test system: RXF 393 renal
T-47D breast = test system: T-47D breast
OVCAR-8 ovarian = test system: OVCAR-8 ovarian
MDA-MB-231 breast = test system: MDA-MB-231 breast
OVCAR-5 ovarian = test system: OVCAR-5 ovarian

CC(C)Cn1cnc2c(N)nc3ccccc3c21
GI50 (K-562 leukemia): > 100 µM | TGI (K-562 leukemia): > 100 µM | GI50 (PC-3 prostate): > 100 µM | TGI (PC-3 prostate): > 100 µM | GI50 (DU-145 prostate): > 100 µM | TGI (DU-145 prostate): > 100 µM | GI50 (IGROV1 ovarian): > 100 µM | TGI (IGROV1 ovarian): > 100 µM | GI50 (MDA-MB-468 breast): > 100 µM | TGI (MDA-MB-468 breast): > 100 µM | GI50 (SK-OV-3 ovarian): > 100 µM | TGI (SK-OV-3 ovarian): > 100 µM | GI50 (HT29 colon): > 100 µM | TGI (HT29 colon): > 100 µM | GI50 (SW-620 colon): > 100 µM | TGI (SW-620 colon): > 100 µM | GI50 (HCT-116 colon): > 100 µM | TGI (HCT-116 colon): > 100 µM | GI50 (BT-549 breast): > 100 µM | TGI (BT-549 breast): > 100 µM | GI50 (SNB-75 CNS): > 100 µM | TGI (SNB-75 CNS): > 100 µM | GI50 (CCRF-CEM leukemia): > 100 µM | TGI (CCRF-CEM leukemia): > 100 µM | GI50 (EKVX NSCLC): 67.9 µM | TGI (EKVX NSCLC): > 100 µM | GI50 (SNB-19 CNS): > 100 µM | TGI (SNB-19 CNS): > 100 µM | GI50 (HS 578T breast): > 100 µM | TGI (HS 578T breast): > 100 µM | GI50 (NCI-H522 lung): > 100 µM | TGI (NCI-H522 lung): > 100 µM | GI50 (RPMI-8226 leukemia): > 100 µM | TGI (RPMI-8226 leukemia): > 100 µM | GI50 (M14 melanoma): > 100 µM | TGI (M14 melanoma): > 100 µM | GI50 ([…]-0 renal): > 100 µM | TGI (786-0 renal): > 100 µM | GI50 (SF-268 CNS): > 100 µM | TGI (SF-268 CNS): > 100 µM | GI50 (OVCAR-4 ovarian): > 100 µM | TGI (OVCAR-4 ovarian): > 100 µM | GI50 (HL-60(TB) leukemia): > 100 µM | TGI (HL-60(TB) leukemia): > 100 µM | GI50 (OVCAR-3 ovarian): > 100 µM | TGI (OVCAR-3 ovarian): > 100 µM | GI50 (SF-539 CNS): > 100 µM | TGI (SF-539 CNS): > 100 µM | GI50 (KM12 colon): > 100 µM | TGI (KM12 colon): > 100 µM | GI50 (ACHN renal): > 100 µM | TGI (ACHN renal): > 100 µM | GI50 (NCI/ADR-RES ovarian): > 100 µM | TGI (NCI/ADR-RES ovarian): > 100 µM | GI50 (UACC-257 melanoma): > 100 µM | TGI (UACC-257 melanoma): > 100 µM | GI50 (NCI-H226 lung): > 100 µM | TGI (NCI-H226 lung): > 100 µM | GI50 (MOLT-4 leukemia): > 100 µM | TGI (MOLT-4 leukemia): > 100 µM | GI50 (MDA-MB-435 melanoma): > 100 µM | TGI (MDA-MB-435 melanoma): > 100 µM | GI50 (SK-MEL-2 melanoma): > 100 µM | TGI (SK-MEL-2 melanoma): > 100 µM | GI50 (MCF7 breast): > 100 µM | TGI (MCF7 breast): > 100 µM | GI50 (CAKI-1 renal): > 100 µM | TGI (CAKI-1 renal): > 100 µM | GI50 (SF-295 CNS): > 100 µM | TGI (SF-295 CNS): > 100 µM | GI50 (UO-31 renal): > 100 µM | TGI (UO-31 renal): > 100 µM | GI50 (U251 glioblastoma): > 100 µM | TGI (U251 glioblastoma): > 100 µM | GI50 (HOP-62 NSCLC): > 100 µM | TGI (HOP-62 NSCLC): > 100 µM | GI50 (NCI-H322M lung): > 100 µM | TGI (NCI-H322M lung): > 100 µM | GI50 (TK-10 renal): > 100 µM | TGI (TK-10 renal): > 100 µM | GI50 (MALME-3M melanoma): > 100 µM | TGI (MALME-3M melanoma): > 100 µM | GI50 (NCI-H23 lung): > 100 µM | TGI (NCI-H23 lung): > 100 µM | GI50 (A549 NSCLC): > 100 µM | TGI (A549 NSCLC): > 100 µM | GI50 (HCT-15 colon): > 100 µM | TGI (HCT-15 colon): > 100 µM | GI50 (SK-MEL-28 melanoma): > 100 µM | TGI (SK-MEL-28 melanoma): > 100 µM | GI50 (LOX IMVI melanoma): > 100 µM | TGI (LOX IMVI melanoma): > 100 µM | GI50 (SN12C renal): > 100 µM | TGI (SN12C renal): > 100 µM | GI50 (UACC-62 melanoma): > 100 µM | TGI (UACC-62 melanoma): > 100 µM | GI50 (HOP-92 NSCLC): > 100 µM | TGI (HOP-92 NSCLC): > 100 µM | GI50 (A498 renal): > 100 µM | TGI (A498 renal): > 100 µM | GI50 (RXF 393 renal): > 100 µM | TGI (RXF 393 renal): > 100 µM | GI50 (T-47D breast): > 100 µM | TGI (T-47D breast): > 100 µM | GI50 (OVCAR-8 ovarian): > 100 µM | TGI (OVCAR-8 ovarian): > 100 µM | GI50 (MDA-MB-231 breast): > 100 µM | TGI (MDA-MB-231 breast): > 100 µM | GI50 (OVCAR-5 ovarian): > 100 µM | TGI (OVCAR-5 ovarian): > 100 µM
